Measurements from patent US20260092085A1, “SYNTHETIC TRIPLEX PEPTIDE NUCLEIC ACID-BASED INHIBITORS FOR CANCER THERAPY” (University of Connecticut, priority 2022, published 2026).

System: miR-155 downstream genes
Test: Downstream gene expression and protein levels in U2932 tumor samples
Type: in vivo, NSG mice
Conditions: U2932 xenograft
Protocol: FIGS. 22A-D show in vivo gene expression and protein level analysis. (22A) miR-155 gene expression levels in U2932 tumor samples after in vivo treatment with indicated PNAs. Data was normalized with average control U6 (n=4, data represented as mean±standard error mean). ***p<0.001 (22B) Gene expression level of downstream target genes of miR-155: MCL1 in U2932 tumor samples after treatment with total 3 mg kg-1 dose of Scr-γtcPNA-155, PNA-155, γPNA-155 and γtcPNA-155 and normalized with average control GAPDH (n=3, data represented as mean±SEM), unpaired two-tailed t-test was performed for analysis). *p<0.05, **p<0.01 (22C) Representative western blot of Mcl-1 protein and its quantification (n=3 technical replicate) in U2932 tumor samples treated with total 3 mg kg-1 dose of Scr-γtcPNA-155, PNA-155 and γtcPNA-155. Data is represented as mean±SEM and unpaired two-tailed t-test was performed for analysis. *p<0.05. The relative protein levels were determined from the band intensity using ImageJ software and normalized relative to loading control and treatment control. (22D) Gene expression level of tumor suppressor proteins (FOXO3A, CUX1, SOCS1, CSF1R, JARID2, SHIP1, PICALM, PDCD4, BACH1, CASP3) in U2932 tumor samples after treatment with total 3 mg kg-1 dose of Scr-γtcPNA-155, PNA-155, γPNA-155 and γtcPNA-155 and normalized with average control GAPDH (n=3, data represented as mean±SEM, unpaired two-tailed t-test was performed for statistical analysis). *p<0.05, **p<0.01.
Data is represented as mean±SEM and unpaired t-test was used for statistical analysis *p<0.05. The relative protein levels were determined from the band intensity using ImageJ software and normalized relative to loading control and treatment control.
Data is represented as mean±SEM and unpaired t-test was used for statistical analysis.
Data is represented as mean±SEM and unpaired t-test was used for statistical analysis. The relative protein levels were determined from the band intensity using ImageJ software and normalized relative to loading control and treatment control.
RNA and Protein extraction from tumor samples: The mice were injected intra-tumorally with 1 mg kg-1 dose of PNA-155, γtcPNA-155, γPNA-155, Scr-γtcPNA-155 or were untreated. The injections were repeated two additional times after 1 week each. The length, breadth, and depth of the tumors were measured daily using a vernier caliper. The mice were euthanized when the tumor volumes reached 2000 mm^3. The resected tumor sections were finely minced using a sterile blade and suspended in dissociation media (4 ml) comprising of RPMI-1640, 1.2 mg/ml dispase, and 0.5 mg/ml collagenase for 90 mins at 500 rpm at 37° C. The dissociated tumors were washed with buffer saline at 2500 rpm (4 mins) at 4° C. and then suspended in 0.25% trypsin for 4 mins at room temperature. RPMI 1640 media was added to the trypsinized tumor mass, and the cells were passed through a 70 um filter. The cells were centrifuged at 2500 rpm for 4 mins at 4° C. The cell pellet was then suspended in 1×RBC lysis buffer (Sigma) and incubated on ice for 10 mins. PBS was added to the cells and the cells were passed through a 40 um filter. The cells were centrifuged at 2500 rpm for 4 mins at 4° C. The cell pellet was resuspended in 0.5% BSA in PBS. The mouse cells were removed from the tumor cells using a mouse cell depletion kit (Miltenyi Biotec) according to the manufacturer's protocol. The enriched tumor cells from each tumor sample were divided into two fractions. RNA for gene expression analysis was extracted from one tumor fraction by the same procedure as mentioned earlier. The protein for western blot analysis was extracted from the second fraction using the method described above.

With “γtcPNA-155: serine gamma tail-clamp anti-miR-155 PNA, RR-TJJJJ-OOO-ACCCCTATCACGATTAGCATTAA-RR, SEQ ID NO: 3 (all peptide nucleic acid (PNA); serine gamma PNA, tail-clamp TJJJJ via linkers, Arg-Arg at both ends)” the “upregulation of tumor suppressor genes in tumors” value (intratumoral) was “significant upregulation”, the “decrease in MCL1 mRNA levels in tumors” value (total 3 mg kg-1, compared to PNA-155 treated group) was ~50% and the “increase in Caspase-3 protein levels in tumors” value (versus Scr-γtcPNA-155-treated tumors) was 23%. For the same substance, the “Mcl-1 protein level in tumors” value (western blot) was “reduction in the protein levels”.
